Here are results for 17 compounds from ChEMBL document CHEMBL4840332, “Pd-Catalyzed Direct Diversification of Natural Anti-Alzheimer's Disease Drug: Synthesis and Biological Evaluation of N-Aryl Huperzine A Analogues” (J Nat Prod, 2021).

The source made the active and inactive calls. The rule behind the calls is not given here.

Assay [1] has as its target Acetylcholinesterase (Electrophorus electricus) (UniProt O42275). As to the kind of experiment: Inhibition of electric eel AChE at 100 uM using acetylthiocholine chloride as a substrate incubated for 20 mins followed by substrate addition and measured after 20 mins by Ellman's method. To be noted: time 40.0 min.
Another assay has as its system SH-SY5Y. The assay is described as follows: Neuroprotective activity against H2O2-induced oxidative stress in human SH-SY5Y cells assessed as cell viability at 50 uM pretreated for 1 hr followed by H2O2 addition and measured after 4 hrs by MTT assay relative to control. To be noted: time 5 hrs, read-out: Activity. It is filed as functional. In general terms: Tetrazolium dyes change colour on reduction, which living cells bring about.

Assay [2] addresses Acetylcholinesterase (Electrophorus electricus) (UniProt O42275). As to the kind of experiment: Inhibition of electric eel AChE at 100 uM using acetylthiocholine chloride as a substrate incubated for 20 mins followed by substrate addition and measured after 20 mins by Ellman's method relative to control. To be noted: time 40.0 min. In general terms: In Ellman's method for cholinesterases, released thiocholine reacts with DTNB.

Another assay has as its target Acetylcholinesterase (Electrophorus electricus, UniProt O42275). As to the kind of experiment: Inhibition of electric eel AChE using acetylthiocholine chloride as a substrate incubated for 20 mins followed by substrate addition and measured after 20 mins by Ellman's method.
In assay [3] the target is Acetylcholinesterase (Electrophorus electricus) (UniProt O42275). The assay is described as follows: Potency index, ratio of HPA IC50 to test compound IC50 for inhibition of electric eel AChE using acetylthiocholine chloride as a substrate incubated for 20 mins followed by substrate addition and measured after 20 mins by Ellman's method. To be noted: time 40.0 min.
Chain of Acetylcholinesterase (Electrophorus electricus) (O42275 24-633 limits assumed): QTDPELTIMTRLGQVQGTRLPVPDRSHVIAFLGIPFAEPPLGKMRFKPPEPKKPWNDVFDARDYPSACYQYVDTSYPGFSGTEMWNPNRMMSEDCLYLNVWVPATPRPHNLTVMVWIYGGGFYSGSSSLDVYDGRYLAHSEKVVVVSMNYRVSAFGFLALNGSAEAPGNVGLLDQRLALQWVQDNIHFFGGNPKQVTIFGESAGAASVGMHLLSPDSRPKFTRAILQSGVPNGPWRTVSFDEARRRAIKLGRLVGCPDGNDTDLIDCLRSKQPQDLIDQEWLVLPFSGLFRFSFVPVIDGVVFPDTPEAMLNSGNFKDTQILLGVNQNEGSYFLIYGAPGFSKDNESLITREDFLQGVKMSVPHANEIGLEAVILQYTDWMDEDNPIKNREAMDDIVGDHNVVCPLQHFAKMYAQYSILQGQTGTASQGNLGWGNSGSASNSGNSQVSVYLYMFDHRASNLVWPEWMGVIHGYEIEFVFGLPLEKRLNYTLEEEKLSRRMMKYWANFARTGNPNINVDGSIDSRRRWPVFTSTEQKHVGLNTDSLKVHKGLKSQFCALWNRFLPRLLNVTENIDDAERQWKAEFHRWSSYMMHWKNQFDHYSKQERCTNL

As a reminder, the inhibition is the change of the read-out against control, counted positive when it falls. Broadly, the IC50 is the concentration at which inhibition is half-maximal. A low value points to greater potency.

Chain of Acetylcholinesterase (O42275 whole entry): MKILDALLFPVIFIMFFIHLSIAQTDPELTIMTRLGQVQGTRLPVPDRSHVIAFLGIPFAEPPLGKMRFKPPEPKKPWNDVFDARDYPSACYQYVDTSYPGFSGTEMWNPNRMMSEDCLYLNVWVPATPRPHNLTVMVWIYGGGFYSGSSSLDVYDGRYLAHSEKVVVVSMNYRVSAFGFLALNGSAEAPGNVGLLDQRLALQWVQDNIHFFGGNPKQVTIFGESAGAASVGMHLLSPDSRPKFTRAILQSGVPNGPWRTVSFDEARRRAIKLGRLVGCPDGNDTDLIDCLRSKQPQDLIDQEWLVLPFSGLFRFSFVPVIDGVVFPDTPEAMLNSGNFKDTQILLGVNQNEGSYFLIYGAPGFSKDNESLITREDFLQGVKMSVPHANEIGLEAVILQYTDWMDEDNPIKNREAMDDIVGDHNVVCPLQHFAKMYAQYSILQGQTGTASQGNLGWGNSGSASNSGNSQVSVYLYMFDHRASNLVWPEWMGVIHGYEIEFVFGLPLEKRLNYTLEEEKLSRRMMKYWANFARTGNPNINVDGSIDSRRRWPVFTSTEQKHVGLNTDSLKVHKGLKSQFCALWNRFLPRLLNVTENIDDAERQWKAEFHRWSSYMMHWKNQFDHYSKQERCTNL

For `C/C=C1\[C@H]2C=C(C)C[C@]1(Nc1ccc(Cl)cc1)c1ccc(=O)[nH]c1C2`, the inhibition result in assay [1] was “Active”. Consider `C/C=C1\[C@H]2C=C(C)C[C@]1(Nc1ccc3c(c1)OCO3)c1ccc(=O)[nH]c1C2`, for which, in the assay with SH-SY5Y, the viability at 50 µM is greater than 100%.

With `C/C=C1\[C@H]2C=C(C)C[C@]1(Nc1ccc(C)cc1)c1ccc(=O)[nH]c1C2`, the viability at 50 µM with SH-SY5Y was greater than 100%. Regarding `C/C=C1\[C@H]2C=C(C)C[C@]1(Nc1ncc(C)cc1C)c1ccc(=O)[nH]c1C2`, the viability at 50 µM in the assay with SH-SY5Y was greater than 100%. In assay [2], the inhibition was greater than 92%. Further, the IC50 on Acetylcholinesterase was found to be 43 µM. Turning to `C/C=C1\[C@H]2C=C(C)C[C@]1(Nc1cc(C)cc(C)c1)c1ccc(=O)[nH]c1C2`, the viability at 50 µM in the assay with SH-SY5Y is greater than 100%. On to `C/C=C1\[C@H]2C=C(C)C[C@]1(Nc1cc(C)ccn1)c1ccc(=O)[nH]c1C2`, for which, in the assay with SH-SY5Y, the viability at 50 µM was greater than 100%. Moreover, the inhibition result in assay [1] was “Active”.

`C/C=C1\[C@H]2C=C(C)C[C@]1(Nc1c(C)cc(OC)cc1C)c1ccc(=O)[nH]c1C2`: in the assay on SH-SY5Y, the viability at 50 µM is greater than 100%. Moreover, in assay [2], the inhibition was 96%. This compound also yielded a concentration for half-maximal inhibition (IC50) on Acetylcholinesterase of 3.9 µM. On to `C/C=C1\[C@H]2C=C(C)C[C@]1(Nc1cccc(F)c1)c1ccc(=O)[nH]c1C2`, for which, in assay [1], the inhibition entry is “Active”.

Regarding `C/C=C1\[C@H]2C=C(C)C[C@]1(Nc1cccc(C)n1)c1ccc(=O)[nH]c1C2`, the viability at 50 µM with SH-SY5Y was greater than 100%.

As to `C/C=C1\[C@H]2C=C(C)C[C@]1(Nc1ccc(OCC)cc1)c1ccc(=O)[nH]c1C2`, the viability at 50 µM with SH-SY5Y was greater than 100%. `C/C=C1\[C@H]2C=C(C)C[C@]1(Nc1ncccc1OC)c1ccc(=O)[nH]c1C2`: the inhibition result in assay [1] is “Active”. With `C/C=C1\[C@H]2C=C(C)C[C@]1(Nc1cccc3ncccc13)c1ccc(=O)[nH]c1C2`, in the assay on SH-SY5Y, the viability at 50 µM is greater than 100%. `C/C=C1\[C@H]2C=C(C)C[C@]1(Nc1cccc(OC)c1)c1ccc(=O)[nH]c1C2`: the inhibition entry in assay [1] was “Active”. For the compound `C/C=C1\[C@H]2C=C(C)C[C@]1(Nc1ccc(F)cc1)c1ccc(=O)[nH]c1C2`, in assay [2], the inhibition is greater than 92%. On Acetylcholinesterase, the IC50 worked out at 4.5 µM.

Take `C/C=C1\[C@H]2C=C(C)C[C@]1(Nc1cccc(C)c1)c1ccc(=O)[nH]c1C2`: the viability at 50 µM in the assay with SH-SY5Y is greater than 100%. Further, the inhibition in assay [2] was greater than 92%. At Acetylcholinesterase, this compound yielded an IC50 of 47 µM. Turning to `C/C=C1\[C@H]2C=C(C)C[C@]1(Nc1ccc(OC)cn1)c1ccc(=O)[nH]c1C2`, the viability at 50 µM with SH-SY5Y is 144%. For the same compound, the inhibition in assay [2] was determined as 106%. The same compound gave an IC50 on Acetylcholinesterase of 1.5 µM. Also, in assay [3], the Ratio IC50 turned out to be 7.6. In the case of `C/C=C1\[C@H]2C=C(C)C[C@]1(Nc1ncccc1C)c1ccc(=O)[nH]c1C2`, in assay [2], the inhibition is greater than 92%. On Acetylcholinesterase, this compound registered a concentration for half-maximal inhibition (IC50) of 40 µM.
